The text below walks through data of patent US20250134998A1, “T CELLS WITH CELL-SURFACE EXPRESSION OF ADENOSINE DEAMINASE AND USES THEREOF” (The Board of Trustees of the Leland Stanford Junior …, priority 2021, published 2025).

What all share (format): cell-based, human
For one assay, the system named is HA and CD19 CAR T cells. In words: Cytokine secretion by idiotype-activated CAR T cells with NECA (ELISA). As to conditions: plate-bound idiotype, NECA treatment. Here is the method: Co-culture Assays: CAR-T cells were cultured with 1 μM of CPI444 (CORVUS BIOPHARMA) for 2 to 24 hours before the duration of co-culture (unless stated otherwise) with tumor cells or plate-bound idiotype at the concentration 1 or 5 μg/ml. To stimulate a2aR, cells were treated with 0.01-0.1 mM of NECA (Torcis). For cytotoxicity assays, approximately 5×10^4 of tumor cells were co-cultured with CAR T cells at indicated ratio in 200 μL CM in 96-well flat bottom plates. Four images per well at 10× zoom were collected at each time point. Tumor cell growth was quantified by measuring total integrated GFP intensity per well using an IncuCyte ZOOM Live-Cell analysis system (Essen Bioscience) every 2-3 hr. GFP signal was normalized to the time 0 signal. Cell culture supernatants were collected at 24 hours, and interleukin-2 (IL-2) and interferon-g concentrations were determined by enzyme-linked immunosorbent assay (Biolegend). Triplicate wells were plated for each condition. […]
To test whether CAR T cells are susceptible to adenosine-mediated suppression, HA and CD19 CAR T cells were activated with plate-bounded idiotype in the presence or absence of the adenosine receptor agonist 5′-(N-ethylcarboxamido) adenosine (NECA), and analyzed the effector cytokine secretion capacity by ELISA (FIG. 6D; FIGS. 7A-7B). […]
A general note: In an ELISA, binding on a coated surface is turned into a signal by an enzyme label.

The test system of another assay is NF-kB pathway. In words: NF-κB-GFP activation reporter in HA CAR-T cells. An excerpt:
FIG. 7C illustrates NFkB-GFP activation level 4 hrs after stimulation of HA CAR T cells in the presence or absence of NECA and A2aR competitive inhibitor. Data are mean s.e.m. from triplicate wells.
To test whether CAR T cells are susceptible to adenosine-mediated suppression, HA and CD19 CAR T cells were activated with plate-bounded idiotype in the presence or absence of the adenosine receptor agonist 5′-(N-ethylcarboxamido) adenosine (NECA), and analyzed the effector cytokine secretion capacity by ELISA (FIG. 6D; FIGS. 7A-7B). […] Adenosine-dependent a2aR stimulation led to elevate intracellular 3′,5′-cyclic adenosine monophosphate (cAMP) which in turn inhibited the NF-kB pathway and cell proliferation (FIG. 6A). To evaluate whether adenosine suppression of CAR T cells worked through the same mechanisms, an NF-κB activation reporter was constructed by placing the Green Fluorescence Protein (GFP) gene downstream of NF-κB response elements. HA CAR-T cells were co-transduced with this NF-kB-GFP reporter. Upon activation with plate-bound idiotype, NECA diminished activation of the NF-kB-GFP reporter (FIG. 7C). This inhibitory effect on activation was prevented by addition of the selective A2aR competitive antagonist (iA2aR), confirming A2a receptor (A2aR) involvement in the suppressive effect of NECA on HA CAR-T cells.

Another assay deals with Nalm6-GD2. Description: IL-2 and IFNγ ELISA, HA CAR T cells stimulated with Nalm6-GD2 with or without EHNA. Conditions: 10 uM EHNA. Here is the method:
HA CAR T cells were stimulated with Nalm6-GD2 tumor line in the presence or absence of 10 uM of EHNA inhibitor at day 15 post-activation. IL-2 and IFNγ secretion was assessed using ELISA. One donor shown.
In some further experiments, CAR T cells overexpressing either ADA1-TM or ADA2-TM were activated with Nalm6-GD2 in the presence or absence of 10 uM of adenosine deaminase inhibitor—EHNA. It was observed that both CAR T cells overexpressing either HA-ADA1-TM or HA-ADA2-TM produced more IL-2 and IFNγ as compared to control group and this increase was abrogated in the presence of EHNA (see e.g., FIG. 12D).

The test system of a further assay is CD19.BBz CAR T cells. Description: Suppression assay: IL-2 secretion by CD19 CAR T cells with HA CAR T cells present. Conditions: CD19 CAR T cells pre-incubated with A2aR inhibitor, in the presence of adenosine-producing HA cells. Here is the method:
Suppression Assay: For assessing IL-2 secretion inhibition 5×10^4 CD19 CAR T cells 5×10^4 Nalm6 tumor cells together with 5×10^4 of HA CAR or Mock T cells were cultured in 300 μL CM in 96-well flat bottom plates for 24 h. Triplicate wells were plated for each condition. Culture supernatants were collected and analyzed for IL-2 by ELISA (BioLegend).
IL-2 secreted by CD19.BBz CAR T cells co-cultured with Nalm6 leukemia cells was measured in the presence or absence of bulk or sorted CD8+HA CAR T cells for 24 hours.
To test this hypothesis that adenosine production was responsible for the suppressive function of exhausted CAR T cells over neighboring cells, whether HA CAR-T cells were able to produce adenosine in an autocrine manner was investigated (FIG. 7D). Next, CD19 CAR T cells that were pre-incubated with A2aR inhibitor were activated in the presence or absence of (CD8) HA CAR T cells.

As to `CCNC(=O)[C@H]1O[C@@H](n2cnc3c(N)ncnc32)[C@H](O)[C@@H]1O` [NECA, 5′-(N-ethylcarboxamido) adenosine], in the assay on HA and CD19 CAR T cells, the IFNγ production result was “reduced” and the IL-2 production result is “reduced”. For the same molecule, the “activation of the NF-kB-GFP reporter” value in the assay on NF-kB pathway (plate-bound idiotype) is reported as “diminished”.
On to `CCCCCC[C@@H]([C@@H](C)O)n1cnc2c(N)ncnc21` (racemic) [EHNA], for which, in the assay with Nalm6-GD2, the “increase in IFNγ by CAR T cells overexpressing HA-ADA1-TM or HA-ADA2-TM” value is on record as “abrogated” and the “increase in IL-2 by CAR T cells overexpressing HA-ADA1-TM or HA-ADA2-TM” value is “abrogated”.
`Cc1ccc(-c2nc(N)nc3c2nnn3Cc2cccc(CO[C@H]3CCOC3)n2)o1` [iA2aR]: the “IL-2 production by CD19 CAR T cells” value with CD19.BBz CAR T cells is reported as “restored IL-2 production”. Further, in the assay with NF-kB pathway (A2aR antagonist added), the “inhibitory effect of NECA on NF-kB-GFP reporter activation” value was “prevented”.
